Key:
[1] = molecular target: apolipoprotein(a), [apo(a)], apolipoproteinB-100, [apoB-100], coupling reaction that generates Lp(a) (Homo sapiens, UniProt P04114+P08519); assay: LPABC screen: lipoprotein(a) biochemical coupling assay, Lp(a) content by ELISA; settings: recombinant apo(a) 17-kringle (293 cell conditioned media) + HepG2 conditioned media, 67 minutes at 37° C., 0.3 to 50 μM compound
Method: The lipoprotein(a), [Lp(a)], biochemical coupling assay (LPABC) is used to characterize inhibitors of the apolipoprotein(a), [apo(a)], apolipoproteinB-100, [apoB-100], coupling reaction that generates Lp(a). Conditioned media from 293 cells (ATCC CRL-1573), permanently transfected with an apo(a) 17-kringle cDNA expression construct (pcDNA-AMP, In Vitrogen, Carlsbad, Calif.) using standard molecular biology techniques, was used as a source of recombinant apo(a) is diluted 1:3 with phosphate buffered saline (PBS) and 90 μL is pipetted into each well of a 96-well plate and placed into 37° C. incubator for 10 minutes. Twenty microliters of a 0.3 to 50 μM solution of a compound of the present invention in PBS is added to the warmed plate. Ninety microliters of HepG2 (ATCC HB-8065) cell conditioned media diluted 1:3 with PBS is added to the apo(a)/compound mixture and mixed by pipetting up and down 5 times. The reaction is incubated for 67 minutes in a 37° C. incubator. A 100 μL aliquot of the reaction is removed and assayed for its Lp(a) content by an enzyme linked immunosorbent assay (ELISA).

[2] = tested on: Lp(a) production in HepG2^K17 cells; assay: LPA3 screen: inhibition of Lp(a) production in transfected HepG2 cells, Lp(a) in media by ELISA; type: cell-based; settings: Homo sapiens, 8 hours incubation, 0.3 to 50 μM compound, Lp(a) normalized for total protein
Method: The LPA3 screen is used to identify compounds that inhibit Lp(a) production. This screen employs permanently transfected HepG2 cells (HepG2^K17) that are generated using an apo(a) 17-kringle cDNA expression construct (pcDNA-AMP, In Vitrogen, Carlsbad, Calif.) in accordance with methods that are well-known in molecular biology.
HepG2^K17 cells are seeded in 96-well plates at a density of 75,000 cells per well in 0.25 mL of Dulbecco's Modified Eagle Media (DMEM) containing 10% fetal bovine serum (FBS). Seeded plates are incubated overnight in a 37° C., 5% CO2/95% O2 incubator. The media is removed, replaced with (1) fresh media, or (2) fresh media plus 0.3 to 50 μM of a compound of the present invention in 20 μL of PBS, and the plates returned to the incubator for 8 hours. After the additional 8 hours of incubation, Lp(a) is assayed in the media by ELISA. Cells are digested with 0.5N NaOH overnight and assayed for total protein. Lp(a) values are normalized for total protein content.

Structure (SMILES) | IC50 [1] | melting point | IC50 [2]
CC(C)(C)c1cc(CN(c2cccnc2)S(C)(=O)=O)cc(C(C)(C)C)c1O [Example 12, N-(3,5-Di-tert-butyl-4-hydroxy-benzyl)-N-pyridin-3-yl-methanesulfonamide] | 5.58 µM | 133 to 134 °C | 41.2 µM
CC(C)(C)c1cc(CN(c2cccnc2)S(=O)(=O)c2cccc([N+](=O)[O-])c2)cc(C(C)(C)C)c1O [Example 10, N-(3,5-Di-tert-butyl-4-hydroxy-benzyl)-3-nitro-N-pyridin-3-yl-benzenesulfonamide] | 4 µM | 99 to 107 °C | 7.4 µM
COc1ccc(N(Cc2cc(C(C)(C)C)c(O)c(C(C)(C)C)c2)S(=O)(=O)c2cccs2)cn1 [Example 6, Thiophene-2-sulfonic Acid (3,5-di-tert-butyl-4-hydroxy-benzyl)-6-methoxy-pyridin-3-yl-amide] | 3.15 µM |  | 
COc1ccc(S(=O)(=O)N(Cc2cc(C(C)(C)C)c(O)c(C(C)(C)C)c2)c2cccnc2)cc1 [Example 9, N-(3,5-Di-tert-butyl-4-hydroxy-benzyl)-4-methoxy-N-pyridin-3-yl-benzene Sulfonamide] | 3.7 µM | 142 to 143 °C | 5.8 µM
CC(C)(C)c1cc(CN(c2cccnc2)S(=O)(=O)c2ccc3ccccc3c2)cc(C(C)(C)C)c1O [Example 17, N-(3,5-di-tert-butyl-4-hydroxybenzyl)-2-naphthalene-N-pyridin-3-yl-sulfonamide] | 7.1 µM | 160 to 171 °C | 
CC(C)(C)c1cc(CN(c2cccnc2)S(=O)(=O)c2ccccc2)cc(C(C)(C)C)c1O [Example 11, N-(3,5-Di-tert-butyl-4-hydroxy-benzyl)-3-N-pyridin-3-yl-benzenesulfonamide] | 4.12 µM | 143 to 145 °C | 16.2 µM
CC(C)(C)c1ccc(S(=O)(=O)N(Cc2cc(C(C)(C)C)c(O)c(C(C)(C)C)c2)c2cccnc2)cc1 [Example 13, N-(3,5-Di-tert-butyl-4-hydroxy-benzyl)-4-tert-butyl-N-pyridin-3-yl-benzenesulfonamide] | 11.8 µM | 155 to 156 °C | 23.6 µM
CC(=O)Nc1ccc(S(=O)(=O)N(Cc2cc(C(C)(C)C)c(O)c(C(C)(C)C)c2)c2cccnc2)cc1 [Example 8, N-(3,5-Di-tert-butyl-4-hydroxy-benzyl)-4-acetamido-N-pyridin-3-yl-benzenesulfonamide] | 3.5 µM | 167 to 169 °C | 12.5 µM
CC(C)(C)c1cc(CN(c2cccnc2)S(=O)(=O)c2cccs2)cc(C(C)(C)C)c1O [Example 7, Thiophene-2-sulfonic Acid (3,5-di-tert-butyl-4-hydroxy-benzyl)-pyridin-3-yl-amide] | 3.5 µM | 118 to 120 °C | 8.9 µM
CC(C)(C)c1cc(CN(c2cccnc2)S(=O)(=O)c2cccc(Br)c2)cc(C(C)(C)C)c1O [Example 19, N-(3,5-di-tert-butyl-4-hydroxybenzyl)-3-bromo-N-pyridin-3-yl-benzenesulfonamide] | 2.76 µM | 129 to 131 °C | 
Cc1ccc(S(=O)(=O)N(Cc2cc(C(C)(C)C)c(O)c(C(C)(C)C)c2)c2cccnc2)cc1 [Example 3, N-(3,5-Di-tert-butyl-4-hydroxy-benzyl)-4-methyl-N-pyridin-3-yl-benzenesulfonamide] | 3.94 µM | 121 to 123 °C | 6.9 µM

The next compounds have a lower IC50 [1] than those just listed; values first:

IC50 [1] | melting point | Structure (SMILES) | IC50 [2]
2.1 µM | 152 to 153 °C | Cc1ccc(S(=O)(=O)N(Cc2cc(C(C)(C)C)c(O)c(C(C)(C)C)c2)c2ccc(Cl)nc2)cc1 [Example 16, N-(6-Chloro-pyridin-3-yl)-N-(3,5-di-tert-butyl-4-hydroxybenzyl)-4-methyl-benzenesulfonamide] | 
2.6 µM |  | CC(C)(C)c1cc(CN(c2cccnc2)S(=O)(=O)c2ccc(F)cc2)cc(C(C)(C)C)c1O [Example 4, N-(3,5-Di-tert-butyl-4-hydroxy-benzyl)-4-fluoro-N-pyridin-3-yl-benzenesulfonamide] | 7.5 µM
2.43 µM | 105 to 107 °C | CC(C)(C)c1cc(CN(c2cccnc2)S(=O)(=O)c2ccccc2Br)cc(C(C)(C)C)c1O [Example 15, N-(3,5-di-tert-butyl-4-hydroxybenzyl)-2-bromo-N-pyridin-3-yl-benzenesulfonamide] | 
1.92 µM |  | CCOC(=O)C(c1cc(C(C)(C)C)c(O)c(C(C)(C)C)c1)N(CC1CCCCC1)S(C)(=O)=O (stereo not drawn) [Example 2, (Cyclohexylmethyl-methanesulfonyl-amino)-(3,5-Di-tert-butyl-4-hydroxy-phenyl)-acetic Acid Ethyl Ester] | 27.2 µM
2.42 µM | 127 to 129 °C | COc1ccc(N(Cc2cc(C(C)(C)C)c(O)c(C(C)(C)C)c2)S(=O)(=O)c2ccc(C)cc2)cn1 [Example 18, N-(3,5-di-tert-butyl-4-hydroxy-benzyl)-N-(6-methoxy-pyridin-3-yl)-4methyl-benzenesulfonamide] | 
2.1 µM | 117 to 119 °C | Cc1ccc(S(=O)(=O)N(Cc2cc(C(C)(C)C)c(O)c(C(C)(C)C)c2)c2cccnc2Cl)cc1 [Example 14, N-(2-Chloro-pyridin-3-yl)-N-(3,5-di-tert-butyl-4-hydroxy-benzyl)-4-methyl-benzenesulfonamide] | 
1.66 µM |  | CC(C)(C)c1cc(CN(c2cccnc2)S(=O)(=O)c2ccc(-c3ccccn3)s2)cc(C(C)(C)C)c1O [Example 1, 5-Pyridin-2-yl-thiophene-2-sulfonic Acid (3,5-di-tert-butyl-4-hydroxy-benzyl)-pyridin-3-yl-amide] | 
2.6 µM | 159 to 160 °C | CC(C)(C)c1cc(CN(c2cccnc2)S(=O)(=O)c2ccc([N+](=O)[O-])cc2)cc(C(C)(C)C)c1O [Example 5, N-(3,5-Di-tert-butyl-4-hydroxy-benzyl)-4-nitro-N-pyridin-3-yl-benzenesulfonamide] | 9.4 µM
